From patent US7868026B2, “Therapeutic compounds” (Pfizer Inc., priority 2005, dated 2011)
Like-named read-outs stand apart in the source and are kept apart here.

Columns and labels:
Assay type in all cases: biochemical
CYP3A4 [1] = target: T1, CYP3A4 (Homo sapiens, UniProt P08684); assay: Determination of compound Kiapp against recombinant CYP3A4 enzyme (BFC fluorescent substrate)
Summary of the method: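 Recombinant CYP3A4 (5.5 or 8 nM, with or without b5 depending on source) pre-incubated with inhibitor ≥30 min at room temperature in 100 mM sodium phosphate pH 7.0, 5 mM TCEP, 2% DMF. Reaction started with 200 uM NADPH and 5 uM BFC; initial fluorescence rates over 5 min fitted to Morrison tight-binding (non-partial) or Szedlacsek (partial) equations for Kiapp.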

CYP3A4 [2] = target: T1, CYP3A4; assay: Determination of IC50 against CYP3A4 by measurement of inhibition of testosterone metabolism (human liver microsomes, 6-β-OH-testosterone by LC-MS/MS); set-up: 0.1 mg/mL human liver microsomes; details: read-out: IC50 (Testo.)
Summary of the method: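 Human liver microsomes (0.1 mg/mL) incubated with 25 μM testosterone and 1 mM NADPH in 100 mM potassium phosphate, pH 7.4, for eight minutes. 6-β-OH-testosterone measured by LC-MS/MS in MRM mode against an internal standard and quantified from a metabolite standard curve.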

CYP3A4 [3] = target: T1, CYP3A4; assay: Determination of IC50 against CYP3A4 by measurement of inhibition of midazolam metabolism (human liver microsomes, 1-hydroxymidazolam by LC-MS/MS); set-up: 0.1 mg/mL human liver microsomes; details: 2 μM midazolam, 0.1 mg/mL human liver microsomes
Summary of the method: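 Human liver microsomes (0.1 mg/mL) incubated 8 min with 2 μM midazolam and 1 mM NADPH in 100 mM potassium phosphate, pH 7.4. 1-Hydroxymidazolam quantified by LC-MS/MS (MRM) as peak area ratio to internal standard against a metabolite standard curve.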

[4] = Baculo. enzyme preparation, read-out: Kiapp (BFC, Baculo.)
[5] = Super. enzyme preparation, read-out: Kiapp (BFC, Super.)

T1 sequence (P08684 whole entry): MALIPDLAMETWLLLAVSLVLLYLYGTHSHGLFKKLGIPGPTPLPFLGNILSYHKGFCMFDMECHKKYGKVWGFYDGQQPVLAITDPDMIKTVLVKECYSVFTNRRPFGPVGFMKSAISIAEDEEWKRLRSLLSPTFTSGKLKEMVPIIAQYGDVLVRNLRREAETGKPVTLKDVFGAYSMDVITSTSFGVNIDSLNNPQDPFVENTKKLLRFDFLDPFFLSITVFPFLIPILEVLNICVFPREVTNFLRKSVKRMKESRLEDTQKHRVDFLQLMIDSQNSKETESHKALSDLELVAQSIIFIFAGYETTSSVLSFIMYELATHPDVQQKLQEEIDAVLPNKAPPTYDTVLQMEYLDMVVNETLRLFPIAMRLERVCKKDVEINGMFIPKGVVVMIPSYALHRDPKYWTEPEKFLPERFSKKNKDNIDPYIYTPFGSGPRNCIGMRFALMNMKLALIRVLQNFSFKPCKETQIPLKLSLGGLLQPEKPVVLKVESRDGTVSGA

Ki (CYP3A4 [1]; [4]) | Ki (CYP3A4 [1]; [5]) | IC50 (CYP3A4 [2]) | IC50 (CYP3A4 [3]) | SMILES
82.6 nM | 9.1 nM | 17 nM | 12 nM | Cc1cncc(NS(=O)(=O)c2ccccc2C(=O)NCC2CCCC2)c1 [Example 334, N-(cyclopentylmethyl)-2-{[(5-methylpyridin-3-yl)amino]sulfonyl}benzamide]
97.7 nM | 16.8 nM | 28 nM | 20 nM | Cc1cncc(NS(=O)(=O)c2ccccc2C(=O)N(C)Cc2ccccc2)c1 [Example 335, N-benzyl-N-methyl-2-{[(5-methylpyridin-3-yl)amino]sulfonyl}benzamide]
319 nM | 68.2 nM | 19 nM | 37 nM | COc1ccc(CNC(=O)c2ccccc2S(=O)(=O)N(C)c2cccnc2)cc1 [Example 336, N-(4-methoxybenzyl)-2-{[methyl(pyridin-3-yl)amino]sulfonyl}benzamide]
285 nM | 61.3 nM | 64 nM | 88 nM | CCCN(CC1CC1)C(=O)c1ccccc1S(=O)(=O)N(C)c1cccnc1 [Example 337, N-(cyclopropylmethyl)-2-{[methyl(pyridin-3-yl)amino]sulfonyl}-N-propylbenzamide]
24 nM | 6.8 nM | 30 nM | 23 nM | COc1cncc(NS(=O)(=O)c2ccccc2C(=O)N(C)CCC(C)C)c1 [Example 338, 2-{[(5-methoxypyridin-3-yl)amino]sulfonyl}-N-methyl-N-(3-methylbutyl)benzamide]
35.4 nM | 6.1 nM | 26 nM | 14 nM | CCCCCN(C)C(=O)c1ccccc1S(=O)(=O)Nc1cncc(OC)c1 [Example 339, 2-{[(5-methoxypyridin-3-yl)amino]sulfonyl}-N-methyl-N-pentylbenzamide]
338 nM | 92.2 nM | 44 nM | 41 nM | CCCCCNC(=O)c1ccccc1S(=O)(=O)N(C)c1cccnc1 [Example 340, 2-{[methyl(pyridin-3-yl)amino]sulfonyl}-N-pentylbenzamide]
36.6 nM | 13.1 nM | 26 nM | 22 nM | CCCCCN(C)C(=O)c1ccccc1S(=O)(=O)Nc1cncc(C)c1 [Example 341, N-methyl-2-{[(5-methylpyridin-3-yl)amino]sulfonyl}-N-pentylbenzamide]
63 nM | 13.1 nM | 15 nM | 11 nM | Cc1cncc(NS(=O)(=O)c2ccccc2C(=O)NCc2cccc(F)c2)c1 [Example 342, N-(3-fluorobenzyl)-2-{[(5-methylpyridin-3-yl)amino]sulfonyl}benzamide]
206 nM | 60.3 nM | 80 nM | 37 nM | Cc1cncc(NS(=O)(=O)c2ccccc2C(=O)N2CCCC(C)(C)C2)c1 [Example 343, 2-[(3,3-dimethylpiperidin-1-yl)carbonyl]-N-(5-methylpyridin-3-yl)benzenesulfonamide]
54.4 nM | 21.2 nM | 9 nM | 7 nM | Cc1cncc(NS(=O)(=O)c2ccccc2C(=O)N(C)CCc2ccccc2)c1 [Example 344, N-methyl-2-{[(5-methylpyridin-3-yl)amino]sulfonyl}-N-(2-phenylethyl)benzamide]
409 nM | 135 nM | 48 nM | 75 nM | CN(c1cccnc1)S(=O)(=O)c1ccccc1C(=O)N1CCCC(C)(C)C1 [Example 345, 2-[(3,3-dimethylpiperidin-1-yl)carbonyl]-N-methyl-N-pyridin-3-ylbenzenesulfonamide]
52 nM | 13.2 nM | 11 nM | 19 nM | COc1cncc(NS(=O)(=O)c2ccccc2C(=O)N(C)Cc2cccc(F)c2)c1 [Example 346, N-(3-fluorobenzyl)-2-{[(5-methoxypyridin-3-yl)amino]sulfonyl}-N-methylbenzamide]
34.7 nM | 5.4 nM | 26 nM | 13 nM | Cc1cncc(NS(=O)(=O)c2ccccc2C(=O)N(C)CC2CCCC2)c1 [Example 347, N-(cyclopentylmethyl)-N-methyl-2-{[(5-methylpyridin-3-yl)amino]sulfonyl}benzamide]
30.8 nM | 4.7 nM | 12 nM | 7 nM | Cc1cncc(NS(=O)(=O)c2ccccc2C(=O)N(C)CCC(C)C)c1 [Example 348, N-methyl-N-(3-methylbutyl)-2-{[(5-methylpyridin-3-yl)amino]sulfonyl}benzamide]
56.4 nM | 7.4 nM | 25 nM | 11 nM | Cc1cncc(NS(=O)(=O)c2ccccc2C(=O)N(C)Cc2cccc(F)c2)c1 [Example 349, N-(3-fluorobenzyl)-N-methyl-2-{[(5-methylpyridin-3-yl)amino]sulfonyl}benzamide]

Ki (CYP3A4 [1]; [4]) | Ki (CYP3A4 [1]; [5]) | IC50 (CYP3A4 [2]) | IC50 (CYP3A4 [3]) | SMILES
139 nM | 21.4 nM | 39 nM | 20 nM | CN(Cc1cccc(F)c1)C(=O)c1ccccc1S(=O)(=O)Nc1cccnc1 [Example 350, N-(3-fluorobenzyl)-N-methyl-2-[(pyridin-3-ylamino)sulfonyl]benzamide]
456 nM | 138 nM | 110 nM | 113 nM | CCCCNC(=O)c1ccccc1S(=O)(=O)N(C)c1cccnc1 [Example 351, N-butyl-2-{[methyl(pyridin-3-yl)amino]sulfonyl}benzamide]
70.4 nM | 22.6 nM | 31 nM | 16 nM | CCCCN(C)C(=O)c1ccccc1S(=O)(=O)Nc1cncc(C)c1 [Example 352, N-butyl-N-methyl-2-{[(5-methylpyridin-3-yl)amino]sulfonyl}benzamide]
28.1 nM | 11.5 nM | 31 nM | 18 nM | CCCCN(C)C(=O)c1ccccc1S(=O)(=O)Nc1cncc(OC)c1 [Example 353, N-butyl-2-{[(5-methoxypyridin-3-yl)amino]sulfonyl}-N-methylbenzamide]
305 nM | 25.3 nM | 61 nM | 31 nM | Cc1cncc(NS(=O)(=O)c2ccccc2C(=O)NC(C)(C)C)c1 [Example 354, N-(tert-butyl)-2-{[(5-methyl-pyridin-3-yl)amino]sulfonyl} benzamide]
181 nM | 44.9 nM | 64 nM | 63 nM | CN(Cc1ccccc1)C(=O)c1ccccc1S(=O)(=O)N(C)c1cccnc1 [Example 355, N-benzyl-N-methyl-2-{[methyl(pyridin-3-yl)amino]sulfonyl}benzamide]
483 nM | 148 nM | 114 nM | 83 nM | CC1CCN(C(=O)c2ccccc2S(=O)(=O)N(C)c2cccnc2)CC1 [Example 356, N-methyl-2-[(4-methylpiperidin-1-yl)carbonyl]-N-pyridin-3-ylbenzenesulfonamide]
123 nM | 30.4 nM | 43 nM | 32 nM | CN(c1cccnc1)S(=O)(=O)c1ccccc1C(=O)NCc1cccc(F)c1 [Example 357, N-(3-fluorobenzyl)-2-{[methyl(pyridin-3-yl)amino]sulfonyl}benzamide]
592 nM | 137 nM | 100 nM | 68 nM | CC1CC(C)CN(C(=O)c2ccccc2S(=O)(=O)N(C)c2cccnc2)C1 (stereo not shown) [Example 358, 2-[(3,5-dimethylpiperidin-1-yl)carbonyl]-N-methyl-N-pyridin-3-ylbenzenesulfonamide]
593 nM | 140 nM | 260 nM | 101 nM | CN(c1cccnc1)S(=O)(=O)c1ccccc1C(=O)NCC(C)(C)C [Example 359, N-(2,2-dimethylpropyl)-2-{[methyl(pyridin-3-yl)amino]sulfonyl}benzamide]
80.8 nM | 21.8 nM | 43 nM | 25 nM | CCCCCNC(=O)c1ccccc1S(=O)(=O)Nc1cncc(C)c1 [Example 360, 2-{[(5-methylpyridin-3-yl)amino]sulfonyl}-N-pentylbenzamide]
274 nM | 41.4 nM | 40 nM | 16 nM | COc1ccc(CNC(=O)c2ccccc2S(=O)(=O)Nc2cncc(C)c2)cc1 [Example 361, N-(4-methoxybenzyl)-2-{[(5-methylpyridin-3-yl)amino]sulfonyl}benzamide]
94.4 nM | 22.9 nM | 44 nM | 26 nM | Cc1cncc(NS(=O)(=O)c2ccccc2C(=O)NCCC(C)C)c1 [Example 362, N-(3-methylbutyl)-2-{[(5-methylpyridin-3-yl)amino]sulfonyl}benzamide]
169 nM | 36.4 nM | 76 nM | 37 nM | Cc1cncc(NS(=O)(=O)c2ccccc2C(=O)N2CCC(C)CC2)c1 [Example 363, 2-[(4-methylpiperidin-1-yl)carbonyl]-N-(5-methylpyridin-3-yl)benzenesulfonamide]
86.8 nM | 23.4 nM | 49 nM | 33 nM | CCCCCNC(=O)c1ccccc1S(=O)(=O)N(C)c1cncc(OC)c1 [Example 364, 2-{[(5-methoxypyridin-3-yl)(methyl)amino]sulfonyl}-N-pentylbenzamide]
